Results reported in PubChem BioAssay (NCI).
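Interpolation was linear, between the two tested concentrations surrounding the appropriate level; five concentrations were tested over 48 hours in 96-well plates. The concentration for 50% growth inhibition is given as GI50. The concentration for full growth arrest is given as TGI.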

How the values were obtained:
Test in all cases: NCI anticancer screen, dose series, 48 h
SF-268 CNS = tested on: SF-268 CNS
HCT-15 colon = tested on: HCT-15 colon
HL-60(TB) leukemia = tested on: HL-60(TB) leukemia
HCC-2998 colon = tested on: HCC-2998 colon
SK-MEL-5 melanoma = tested on: SK-MEL-5 melanoma
KM20L2 colon = tested on: KM20L2 colon
HOP-18 NSCLC = tested on: HOP-18 NSCLC
EKVX NSCLC = tested on: EKVX NSCLC
OVCAR-8 ovarian = tested on: OVCAR-8 ovarian
PC-3 prostate = tested on: PC-3 prostate
T-47D breast = tested on: T-47D breast

`CC(=O)NC1=C[C@@H]([C@H]2COC(C)(C)O2)OC1=O` was tested, and the TGI (SF-268 CNS) was > 100 µM, the TGI (HCT-15 colon) was > 100 µM and the TGI (HL-60(TB) leukemia) was > 100 µM. The TGI (HCC-2998 colon) was > 100 µM, the TGI (SK-MEL-5 melanoma) was > 100 µM and the TGI (KM20L2 colon) was > 100 µM. For the same compound, the TGI (HOP-18 NSCLC) was > 100 µM, the TGI (EKVX NSCLC) was > 100 µM and the TGI (OVCAR-8 ovarian) was > 100 µM.

`COC(=O)N1CC2C3C4CC(C(c5ccccc5)=C4c4ccccc4)C3C21` (stereo unspecified) showed a TGI (SF-268 CNS) of 33.7 µM, a TGI (PC-3 prostate) of 69.3 µM and a TGI (HCC-2998 colon) of 31.5 µM. The TGI (SK-MEL-5 melanoma) was 25.9 µM, the TGI (T-47D breast) was 32.9 µM and the TGI (EKVX NSCLC) was 36.7 µM. It also gave a TGI (OVCAR-8 ovarian) of 35.7 µM.

With `O=C(Nc1ccc(-n2ccc3c(NC(=O)c4ccccc4)ncnc32)cc1)Nc1cccc(Cl)c1Cl` the GI50 (SF-268 CNS) was 1.1 µM, the TGI (SF-268 CNS) was 3.13 µM and the GI50 (HCT-15 colon) was 0.156 µM. The TGI (HCT-15 colon) was 5.42 µM, the GI50 (HL-60(TB) leukemia) was 13.6 µM and the TGI (HL-60(TB) leukemia) was > 50 µM. The GI50 (PC-3 prostate) was 0.582 µM, the TGI (PC-3 prostate) was 1.57 µM and the GI50 (HCC-2998 colon) was 2.99 µM. The TGI (HCC-2998 colon) was 19.9 µM, the GI50 (SK-MEL-5 melanoma) was 1.35 µM and the TGI (SK-MEL-5 melanoma) was 9.99 µM. It also gave a GI50 (T-47D breast) of 2.17 µM, a TGI (T-47D breast) of 9.22 µM and a GI50 (EKVX NSCLC) of 1.3 µM. For the same compound, the TGI (EKVX NSCLC) was 4.59 µM, the GI50 (OVCAR-8 ovarian) was 1.07 µM and the TGI (OVCAR-8 ovarian) was 2.6 µM.

`C=C(OC1C(C)=C2C(C1OC(=O)CCCCCCC)C(C)(OC(C)=O)CC(OC(=O)CCC)C1(O)C2OC(=O)C1(C)O)/C(C)=C/C` (stereo unspecified) was tested, and the GI50 (SF-268 CNS) was < 0.0001 µM, the TGI (SF-268 CNS) was 16.7 µM and the GI50 (HCT-15 colon) was 0.0842 µM. The TGI (HCT-15 colon) was 15 µM, the GI50 (HL-60(TB) leukemia) was < 0.0001 µM and the GI50 (HCC-2998 colon) was < 0.0001 µM. For the same compound, the TGI (HCC-2998 colon) was 0.778 µM, the GI50 (SK-MEL-5 melanoma) was < 0.0001 µM and the TGI (KM20L2 colon) was 1.23 µM. The TGI (HOP-18 NSCLC) was 9.19 µM, the GI50 (EKVX NSCLC) was < 0.0001 µM and the TGI (EKVX NSCLC) was 0.896 µM. The GI50 (OVCAR-8 ovarian) was 0.000243 µM and the TGI (OVCAR-8 ovarian) was 5.98 µM.

For `CCOC(=O)CC1(c2cccc3ccccc23)OC(=O)c2ccccc21` (stereo unspecified), the TGI (SF-268 CNS) was > 100 µM, the TGI (HCT-15 colon) was > 100 µM and the TGI (HL-60(TB) leukemia) was 54.1 µM. The TGI (HCC-2998 colon) was > 100 µM, the TGI (SK-MEL-5 melanoma) was 63.8 µM and the TGI (KM20L2 colon) was > 100 µM. For the same compound, the TGI (HOP-18 NSCLC) was > 100 µM, the TGI (EKVX NSCLC) was > 100 µM and the TGI (OVCAR-8 ovarian) was > 100 µM.

`CC/C=C(\C(=C/CC)[N+](=O)[O-])[N+](=O)[O-]` was tested, and the TGI (PC-3 prostate) was > 100 µM, the TGI (HCC-2998 colon) was 34.4 µM and the TGI (SK-MEL-5 melanoma) was 47.9 µM. The TGI (T-47D breast) was 55.6 µM, the TGI (EKVX NSCLC) was 29.8 µM and the TGI (OVCAR-8 ovarian) was 39 µM.

`Nc1nc(N)c2cc(NCc3ccc(Cl)c(Cl)c3)ccc2n1` showed a GI50 (SF-268 CNS) of 1.58 µM, a TGI (SF-268 CNS) of 3.12 µM and a GI50 (HCT-15 colon) of 0.765 µM. It also gave a TGI (HCT-15 colon) of 2.02 µM, a GI50 (HL-60(TB) leukemia) of 1.35 µM and a TGI (HL-60(TB) leukemia) of 2.93 µM. It also gave a GI50 (PC-3 prostate) of 0.623 µM, a TGI (PC-3 prostate) of 1.96 µM and a GI50 (HCC-2998 colon) of 1.16 µM. It also gave a TGI (HCC-2998 colon) of 2.51 µM, a GI50 (SK-MEL-5 melanoma) of 1.5 µM and a TGI (SK-MEL-5 melanoma) of 2.83 µM. It also gave a GI50 (T-47D breast) of 1.72 µM and a TGI (T-47D breast) of 3.28 µM.

In the case of `O=C(O)/C(Cc1ccc([N+](=O)[O-])cc1)=N\O`, the TGI (SF-268 CNS) is reported as > 100 µM, the TGI (HCT-15 colon) is reported as > 100 µM and the TGI (HL-60(TB) leukemia) is reported as > 100 µM. The TGI (PC-3 prostate) was > 100 µM, the TGI (HCC-2998 colon) was > 100 µM and the TGI (SK-MEL-5 melanoma) was > 100 µM. For the same compound, the TGI (T-47D breast) was > 100 µM, the TGI (EKVX NSCLC) was > 100 µM and the TGI (OVCAR-8 ovarian) was > 100 µM.
